The assay relates to HIV-1 (JRCSF). The assay is described as follows: Anti-HIV activity in MaRBLE cells infected with HIV-1 (JRCSF), luciferase readout. Type of assay: cell-based. The conditions noted are these: Human immunodeficiency virus 1, 168 h, read-out: Anti-HIV activity IC50. The protocol:
This test was conducted with reference to Journal of Clinical Microbiology, 2007, Vol. 45, p. 477-487.
The anti-HIV activity was evaluated using MaRBLE cells in which a luciferase gene to be expressed under the control of HIV-1 LTR and a CCR5 gene, etc. were introduced in human T lymphocyte-derived HPB-M(a).
A fresh medium or each appropriately diluted test compound was dispensed to 96-well plates to prepare drug solution-containing plates.
The MaRBLE cells were suspended in RPMI1640 containing 10% FCS (fetal calf serum) and penicillin/streptomycin and infected with HIV-1 (JRCSF). Then, the cells were inoculated to the drug solution-containing plates (1×10^5 cells/well). The same number of uninfected cells were inoculated as a control group to the drug solution-containing plates.
After culture at 37° C. for 7 days in a 5% CO2 atmosphere, the intracellular luciferase activity was measured using Steady-Glo Luciferase assay system (Promega Corp.).
The rate of viral proliferation was determined according to the following expression:
Rate of viral proliferation(%)=(A/B)×100
A=(Firefly luciferase activity of the compound-supplemented well)−(Firefly luciferase activity of the uninfected cells)
B=(Firefly luciferase activity of the compound-free well)−(Firefly luciferase activity of the uninfected cells)
IC50 of the compound was calculated by a plot with concentration as the logarithm and the rate of viral proliferation as the real part using the FORECAST function (linear regression method) of Microsoft Office Excel 2003.

The mark [1] stands for this setting: MaRBLE cells (human T lymphocyte-derived HPB-M(a)) infected with HIV-1 (JRCSF), 7 days culture, rate of viral proliferation by luciferase activity.

Like-named read-outs stand apart in the source and are kept apart here.

For orientation: IC50 means the point on the concentration scale where inhibition reaches its midpoint. Take `Cc1ncnc2c1c(NCc1nc3ccccc3[nH]1)cc(=O)n2O` [Example 55, 5-(((1H-benzimidazol-2-yl)methyl)amino)-8-hydroxy-4-methylpyrido[2,3-d]pyrimidin-7(8H)-one]: the IC50 under setting [1] came out at 450 nM.

For `Cc1ncnc2c1c(NCc1ccc(N3CCCCC3)nc1)cc(=O)n2O` [Example 56, 8-hydroxy-4-methyl-5-(((6-(piperidin-1-yl)pyridin-3-yl)methyl)amino)pyrido[2,3-d]pyrimidin-7(8H)-one], the IC50 under setting [1] turned out to be 900 nM.

As for `Cc1ncnc2c1c(NCc1cccnc1N1CCOCC1)cc(=O)n2O` [Example 57, 8-hydroxy-4-methyl-5-(((2-(morpholin-4-yl)pyridin-3-yl)methyl)amino)pyrido[2,3-d]pyrimidin-7(8H)-one], the IC50 under setting [1] came to 85 nM.

As to `Cc1ncnc2c1c(NCc1ccc(OCC(F)(F)F)nc1)cc(=O)n2O` [Example 58, 8-hydroxy-4-methyl-5-(((6-(2,2,2-trifluoroethoxy)pyridin-3-yl)methyl)amino)pyrido[2,3-d]pyrimidin-7(8H)-one], the IC50 under setting [1] was 94 nM.

As for `Cc1ncnc2c1c(NC(c1ccccc1)c1ccccc1)cc(=O)n2O` [Example 59, 5-((diphenylmethyl)amino)-8-hydroxy-4-methylpyrido[2,3-d]pyrimidin-7(81-1)-one], under setting [1], the IC50 came to 160 nM.

Consider `O=c1cc(NCc2ccccc2)c2c(-c3ccccc3)ncnc2n1O` [Example 60, 5-(benzylamino)-8-hydroxy-4-phenylpyrido[2,3-d]pyrimidin-7(8H)-one], for which the IC50 under setting [1] was found to be 190 nM.

Consider `O=c1cc(O)c2c(-c3ccccc3)ncnc2n1O` [Example 61, 5,8-dihydroxy-4-phenylpyrido[2,3-d]pyrimidin-7(8H)-one], for which the IC50 under setting [1] was found to be 490 nM.

Turning to `O=C(NCc1ccccc1)c1ncnc2c1c(O)cc(=O)n2O` [Example 63, N-benzyl-5,8-dihydroxy-7-oxo-7,8-dihydropyrido[2,3-d]pyrimidine-4-carboxamide], under setting [1], the IC50 came out at 870 nM.

Regarding `Cc1ncnc2c1c(O)c(-c1ccccc1)c(=O)n2O` [Example 64, 5,8-dihydroxy-4-methyl-6-phenylpyrido[2,3-d]pyrimidin-7(8H)-one], the IC50 under setting [1] was 350 nM.

As to `O=c1cc(O)c2c(Cc3ccccc3)ncnc2n1O` [Example 66, 4-benzyl-5,8-dihydroxypyrido[2,3-d]pyrimidin-7(8H)-one], the IC50 under setting [1] was 560 nM.

Regarding `O=c1c(-c2ccccc2)c(O)c2c(-c3ccccc3)ncnc2n1O` [Example 67, 5,8-dihydroxy-4,6-diphenylpyrido[2,3-d]pyrimidin-7(8H)-one], the IC50 under setting [1] turned out to be 160 nM.

`Cc1c(O)c2c(-c3ccccc3)ncnc2n(O)c1=O` [Example 68, 5,8-dihydroxy-6-methyl-4-phenylpyrido[2,3-d]pyrimidin-7(8H)-one]: the IC50 under setting [1] stood at 250 nM.

Consider `O=C(NCc1ccccc1)c1cc2c(NCc3ccccc3)ncnc2n(O)c1=O` [Example 70, N-benzyl-4-(benzylamino)-8-hydroxy-7-oxo-7,8-dihydropyrido[2,3-d]pyrimidine-6-carboxamide], for which, under setting [1], the IC50 came to 790 nM.

With `Cc1ncnc2c1c(NCc1ccccc1-c1cccnc1)cc(=O)n2O` [Example 72, 8-hydroxy-4-methyl-5-((2-(pyridin-3-yl)benzyl)amino)pyrido[2,3-d]pyrimidin-7(8H)-one], the IC50 under setting [1] is 150 nM.

With `O=c1cc(O)c2c(O)ncnc2n1O` [Example 77, 4,5,8-trihydroxypyrido[2,3-d]pyrimidin-7(8H)-one], the IC50 under setting [1] worked out at 590 nM.

Consider `O=C(NCc1ccccc1)c1c(O)c2c(NCc3ccccc3)ncnc2n(O)c1=O` [Example 78, N-benzyl-4-(benzylamino)-5,8-dihydroxy-7-oxo-7,8-dihydropyrido[2,3-d]pyrimidine-6-carboxamide], for which, under setting [1], the IC50 is 300 nM.

For `O=c1cc(O)c2c(NCc3ccccc3)ncnc2n1O` [Example 79, 4-(benzylamino)-5,8-dihydroxypyrido[2,3-d]pyrimidine-7(8H)-one], the IC50 under setting [1] was 820 nM.

In the case of `O=c1cc(O)c2c(NCCc3ccccc3)ncnc2n1O` [Example 80, 5,8-dihydroxy-4-((2-phenylethyl)amino)pyrido[2,3-d]pyrimidine-7(8H)-one], the IC50 under setting [1] was 570 nM.

With `O=C(Nc1ccccc1)c1c(O)c2c(Nc3ccccc3)ncnc2n(O)c1=O` [Example 81, 4-anilino-5,8-dihydroxy-7-oxo-N-phenyl-7,8-dihydropyrido[2,3-d]pyrimidine-6-carboxamide], the IC50 under setting [1] is 360 nM.

For the compound `Cc1ncnc2c1c(NCc1ccc(C(F)(F)F)nc1)cc(=O)n2O` [Example 83, 8-hydroxy-4-methyl-5-(((6-(trifluoromethyl)pyridin-3-yl)methyl)amino)pyrido[2,3-d]pyrimidine-7(8H)-one], under setting [1], the IC50 was determined as 370 nM.

As to `CNc1cccc(CNc2cc(=O)n(O)c3ncnc(C)c23)c1` [Example 84, 8-hydroxy-4-methyl-5-((3-(methylamino)benzyl)amino)pyrido[2,3-d]pyrimidin-7(8H)-one], the IC50 turned out to be 76 nM.

In the case of `Cc1ncnc2c1c(NCCc1cccnc1)cc(=O)n2O` [Example 85, 8-hydroxy-4-methyl-5-((2-(pyridin-3-yl)ethyl)amino)pyrido[2,3-d]pyrimidin-7(8H)-one], the IC50 under setting [1] was 310 nM.

As to `Cc1ncnc2c1c(NCCc1ccncc1)cc(=O)n2O` [Example 86, 8-hydroxy-4-methyl-5-((2-(pyridin-4-yl)ethyl)amino)pyrido[2,3-d]pyrimidin-7(8H)-one], under setting [1], the IC50 is 500 nM.

For `Cc1ncnc2c1c(Nc1ccccc1)cc(=O)n2O` [Example 87, 5-anilino-8-hydroxy-4-methylpyrido[2,3-d]pyrimidin-7(8H)-one], the IC50 under setting [1] was found to be 81 nM.

Regarding `Cc1ncnc2c1c(NCc1ccc3cc[nH]c3c1)cc(=O)n2O` [Example 88, 8-hydroxy-5-(((1H-indol-6-yl)methyl)amino)-4-methylpyrido[2,3-d]pyrimidin-7(8H)-one], the IC50 under setting [1] amounted to 63 nM.

For the compound `Cc1ncnc2c1c(NCc1cccc3[nH]ccc13)cc(=O)n2O` [Example 89, 8-hydroxy-5-(((1H-indol-4-yl)methyl)amino)-4-methylpyrido[2,3-d]pyrimidin-7(8H)-one], under setting [1], the IC50 was found to be 85 nM.

As for `Cc1ncnc2c1c(NC1CCN(C)CC1)cc(=O)n2O` [Example 90, 8-hydroxy-4-methyl-5-((1-methylpiperidin-4-yl)amino)pyrido[2,3-d]pyrimidin-7(8H)-one], the IC50 under setting [1] was found to be 580 nM.

As for `Cc1ncnc2c1c(NCCc1ccccn1)cc(=O)n2O` [Example 92, 8-hydroxy-4-methyl-5-((2-(pyridin-2-yl)ethyl)amino)pyrido[2,3-d]pyrimidin-7(8H)-one], the IC50 under setting [1] stood at 31 nM.

On to `Cc1ncnc2c1c(NCc1ccc3[nH]ccc3c1)cc(=O)n2O` [Example 93, 8-hydroxy-5-(((1H-indol-5-yl)methyl)amino)-4-methylpyrido[2,3-d]pyrimidin-7(8H)-one], for which the IC50 under setting [1] was 45 nM.

Turning to `Cc1ncnc2c1c(NCc1ccc(-c3ccccc3)nc1)cc(=O)n2O` [Example 94, 8-hydroxy-4-methyl-5-(((6-phenylpyridin-3-yl)methyl)amino)pyrido[2,3-d]pyrimidin-7(8H)-one], the IC50 under setting [1] stood at 43 nM.

As to `Cc1ncnc2c1c(NCc1cc3ccccc3[nH]1)cc(=O)n2O` [Example 95, 8-hydroxy-5-(((1H-indol-2-yl)methyl)amino)-4-methylpyrido[2,3-d]pyrimidin-7(8H)-one], the IC50 under setting [1] is 110 nM.

The values above are taken from patent US20150018546A1, “HETEROCYCLIC COMPOUND HAVING ANTI-HIV ACTIVITY” (TOYAMA CHEMICAL CO., LTD., priority 2012, published 2015).
